Reference: patent US6858591B2, “Antibiotic AA 896 analogs” (Wyeth Holdings Corporation, priority 2001, dated 2005)
Like-named read-outs stand apart in the source and are kept apart here.

How the values were obtained:
Test in all cases: In vitro MIC, broth dilution
Assay type in all cases: cell-based
E. coli GC 4559 = details: Escherichia coli, GC4559
E. coli GC 4560 = details: Escherichia coli, GC4560
E. coli GC 3226 = details: Escherichia coli, GC3226
S. marcescens GC 4077 = details: Serratia marcescens, GC4077
C. albicans GC 3066 = details: Candida albicans, GC3066
M. morganii GC 4531 = details: Morganella morganii, GC4531
K. pneumoniae GC 4534 = details: Klebsiella pneumoniae, GC4534
E. cloacae GC 3783 = details: Enterobacter cloacae, GC3783
P. aeruginosa GC 4532 = details: Pseudomonas aeruginosa, GC4532
CNS GC 4537 = test system: CNS GC 4537
Method in brief: (§1)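 MIC = lowest antibiotic concentration preventing visible growth after 18 h at 35 °C, ambient air. Inoculum 5×10^5 CFU/ml; drug tested 64-0.06 μg/ml in Mueller-Hinton II broth following NCCLS guidance.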

CNS GC 4538 = test system: CNS GC 4538
Method in brief: as §1

CNS GC 4547 = test system: CNS GC 4547
Method in brief: as §1

E. faecalis GC 2242 = details: Enterococcus faecalis, GC2242
Method in brief: as §1

E. faecalis GC 4555 = details: Enterococcus faecalis, GC4555
Method in brief: as §1

E. faecalis GC 842 = details: Enterococcus faecalis, GC842
Method in brief: as §1

S. aureus GC 1131 = details: Staphylococcus aureus, GC1131
Method in brief: as §1

S. aureus GC 2216 = details: Staphylococcus aureus, GC2216
Method in brief: as §1

S. aureus GC 4536 = details: Staphylococcus aureus, GC4536
Method in brief: as §1

E. coli GC 2203 = details: Escherichia coli, GC2203
P. aeruginosa GC 2214 = details: Pseudomonas aeruginosa, GC2214
[1] = S. marcescens GC 4077, read-out: MIC
[2] = C. albicans GC 3066, read-out: MIC
[3] = M. morganii GC 4531, read-out: MIC
[4] = K. pneumoniae GC 4534, read-out: MIC
[5] = E. cloacae GC 3783, read-out: MIC
[6] = P. aeruginosa GC 4532, read-out: MIC
[7] = E. faecalis GC 2242, read-out: MIC
[8] = E. faecalis GC 4555, read-out: MIC
[9] = E. faecalis GC 842, read-out: MIC
[10] = S. aureus GC 1131, read-out: MIC
[11] = S. aureus GC 2216, read-out: MIC
[12] = S. aureus GC 4536, read-out: MIC
[13] = P. aeruginosa GC 2214, read-out: MIC

Measured: MIC

COc1ccc(Cn2c(=O)ccn([C@@H]3OC([C@H](O)[C@H](NC(=O)CCCCCCCCCCN)C(=O)OC(C)(C)C)[C@@H](O[Si](C)(C)C(C)(C)C)[C@H]3O[Si](C)(C)C(C)(C)C)c2=O)cc1 (stereo partly drawn) [Example 23, tert-Butyl (2S,3R)-2-[(11-aminoundecanoyl)amino]-3-[(3R,4R,5R)-3,4-bis{[tert-butyl(dimethyl)silyl]oxy}-5-(3-(4-methoxybenzyl)-2,4-dioxo-3,4-dihydro-1(2H)-pyrimidinyl)tetrahydro-2-furanyl]-3-hydroxypropanoate]
> 128 µg/mL: E. coli GC 4559; E. coli GC 4559, read-out: MIC | E. coli GC 3226; E. coli GC 3226, read-out: MIC | K. pneumoniae GC 4534; [4] | E. cloacae GC 3783; [5] | CNS GC 4547; CNS GC 4547, read-out: MIC | S. aureus GC 1131; [10] | E. coli GC 2203; E. coli GC 2203, read-out: MIC
128 µg/mL: E. coli GC 4560; E. coli GC 4560, read-out: MIC | S. marcescens GC 4077; [1] | C. albicans GC 3066; [2] | M. morganii GC 4531; [3] | P. aeruginosa GC 4532; [6] | CNS GC 4537; CNS GC 4537, read-out: MIC | CNS GC 4538; CNS GC 4538, read-out: MIC | E. faecalis GC 2242; [7] | E. faecalis GC 4555; [8] | E. faecalis GC 842; [9] | S. aureus GC 2216; [11] | S. aureus GC 4536; [12] | P. aeruginosa GC 2214; [13]

COc1ccc(Cn2c(=O)ccn([C@@H]3OC([C@H](O)[C@H](NCCCNC(=O)CCCCCCCCCCNC(=O)OCC4c5ccccc5-c5ccccc54)C(=O)OC(C)(C)C)[C@@H](O[Si](C)(C)C(C)(C)C)[C@H]3O[Si](C)(C)C(C)(C)C)c2=O)cc1 (stereo partly drawn) [Example 24, tert-Butyl (21S)-21-[(R)-[(3R,4R,5R)-3,4-bis{[tert-butyl(dimethyl)silyl]oxy}-5-(3-(4-methoxybenzyl)-2,4-dioxo-3,4-dihydro-1(2H)-pyrimidinyl)tetrahydro-2-furanyl](hydroxy)methyl]-1-(9H-fluoren-9-yl)-3,15-dioxo-2-oxa-4,16,20-triazadocosan-22-oate]
> 128 µg/mL: E. coli GC 4559 | E. coli GC 3226 | K. pneumoniae GC 4534 | E. cloacae GC 3783 | CNS GC 4537 | CNS GC 4538 | CNS GC 4547 | E. faecalis GC 4555 | E. faecalis GC 842 | S. aureus GC 1131 | S. aureus GC 2216 | S. aureus GC 4536 | E. coli GC 2203
128 µg/mL: E. coli GC 4560 | S. marcescens GC 4077 | C. albicans GC 3066 | M. morganii GC 4531 | P. aeruginosa GC 4532 | E. faecalis GC 2242 | P. aeruginosa GC 2214

COc1ccc(Cn2c(=O)ccn([C@@H]3OC([C@H](O)[C@H](NCCCNC(=O)CCCCCCCCCCN)C(=O)OC(C)(C)C)[C@@H](O[Si](C)(C)C(C)(C)C)[C@H]3O[Si](C)(C)C(C)(C)C)c2=O)cc1 (stereo partly drawn) [Example 25]
64 µg/mL: CNS GC 4537; CNS GC 4537, read-out: MIC | CNS GC 4538; CNS GC 4538, read-out: MIC | E. faecalis GC 2242; [7]
> 128 µg/mL: E. coli GC 4559; E. coli GC 4559, read-out: MIC | E. coli GC 3226; E. coli GC 3226, read-out: MIC | K. pneumoniae GC 4534; [4] | E. cloacae GC 3783; [5] | E. coli GC 2203; E. coli GC 2203, read-out: MIC
128 µg/mL: E. coli GC 4560; E. coli GC 4560, read-out: MIC | S. marcescens GC 4077; [1] | C. albicans GC 3066; [2] | M. morganii GC 4531; [3] | P. aeruginosa GC 4532; [6] | CNS GC 4547; CNS GC 4547, read-out: MIC | E. faecalis GC 4555; [8] | E. faecalis GC 842; [9] | S. aureus GC 1131; [10] | S. aureus GC 2216; [11] | S. aureus GC 4536; [12] | P. aeruginosa GC 2214; [13]

COc1ccc(Cn2c(=O)ccn([C@@H]3OC([C@H](O)[C@H](NCCCNC(=O)[C@@H](NC(=O)[C@H](CCCNC(=N)N[N+](=O)O)NC(=O)N[C@H](C(=O)OCc4ccccc4)C(C)C)[C@@H](O)C(C)C)C(=O)OC(C)(C)C)[C@@H](O[Si](C)(C)C(C)(C)C)[C@H]3O[Si](C)(C)C(C)(C)C)c2=O)cc1 (stereo partly drawn) [Example 26, 1-Benzyl 17-(tert-butyl)(2S,6S,9S,16S)-16-[(R)-[(3R,4R,5R)-3,4-bis{[tert-butyl(dimethyl)silyl]oxy}-5-(3-(4-methoxybenzyl)-2,4-dioxo-3,4-dihydro-1(2H)-pyrimidinyl)tetrahydro-2-furanyl](hydroxy)methyl]-6-(3-{[(2,2-dioxido-2lambda˜1˜-diazanyl)(imino)methyl]amino}propyl)-9-[(1S)-1-hydroxy-2-methylpropyl]-2-isopropyl-4,7,10-trioxo-3,5,8,11,15-pentaazaheptadecane-1,17-dioate]
> 128 µg/mL: E. coli GC 4559 | E. coli GC 4560 | E. coli GC 3226 | S. marcescens GC 4077 | C. albicans GC 3066 | M. morganii GC 4531 | K. pneumoniae GC 4534 | E. cloacae GC 3783 | P. aeruginosa GC 4532 | CNS GC 4537 | CNS GC 4538 | CNS GC 4547 | E. faecalis GC 4555 | E. faecalis GC 842 | S. aureus GC 1131 | S. aureus GC 2216 | S. aureus GC 4536 | E. coli GC 2203
128 µg/mL: E. faecalis GC 2242 | P. aeruginosa GC 2214

COc1ccc(Cn2c(=O)ccn([C@@H]3OC([C@H](O)[C@H](NCCCNC(=O)[C@H](CC(C)C)NC(=O)[C@H](CCCNC(=N)N[N+](=O)O)NC(=O)N[C@H](C(=O)OCc4ccccc4)C(C)C)C(=O)OC(C)(C)C)[C@@H](O[Si](C)(C)C(C)(C)C)[C@H]3O[Si](C)(C)C(C)(C)C)c2=O)cc1 (stereo partly drawn) [Example 28, 1-Benzyl 17-(tert-butyl)(2S,6S,9S,16S)-16-[(R)-[(3R,4R,5R)-3,4-bis{[tert-butyl(dimethyl)silyl]oxy}-5-(3-(4-methoxybenzyl)-2,4-dioxo-3,4-dihydro-1(2H)-pyrimidinyl)tetrahydro-2-furanyl](hydroxy)methyl]-6-(3-{[(2,2-dioxido-2lambda˜1˜-diazanyl)(imino)methyl]amino}propyl)-9-isobutyl-2-isopropyl-4,7,10-trioxo-3,5,8,11,15-pentaazaheptadecane-1,17-dioate]
> 128 µg/mL: E. coli GC 4559 | E. coli GC 4560 | E. coli GC 3226 | S. marcescens GC 4077 | C. albicans GC 3066 | M. morganii GC 4531 | K. pneumoniae GC 4534 | E. cloacae GC 3783 | P. aeruginosa GC 4532 | CNS GC 4537 | CNS GC 4538 | CNS GC 4547 | E. faecalis GC 2242 | E. faecalis GC 4555 | E. faecalis GC 842 | S. aureus GC 1131 | S. aureus GC 2216 | S. aureus GC 4536 | E. coli GC 2203 | P. aeruginosa GC 2214

COc1ccc(Cn2c(=O)ccn([C@@H]3OC([C@H](O)[C@H](NCCCNC(=O)[C@H](CC(C)C)NC(=O)[C@H](CCCNC(=N)N)NC(=O)N[C@H](C(=O)O)C(C)C)C(=O)OC(C)(C)C)[C@@H](O[Si](C)(C)C(C)(C)C)[C@H]3O[Si](C)(C)C(C)(C)C)c2=O)cc1 (stereo partly drawn) [Example 29, (2S,6S,9S,16S)-6-(3-{[Amino(imino)methyl]amino}propyl)-16-[(R)-[(3R,4R,5R)-3,4-bis{[tert-butyl(dimethyl)silyl]oxy}-5-(3-(4-methoxybenzyl)-2,4-dioxo-3,4-dihydro-1(2H)-pyrimidinyl)tetrahydro-2-furanyl](hydroxy)methyl]-9-isobutyl-2-isopropyl-19,19-dimethyl-4,7,10,17-tetraoxo-18-oxa-3,5,8,11,15-pentaazaicosan-1-oic acid]
128 µg/mL: E. coli GC 4560 | S. marcescens GC 4077 | M. morganii GC 4531 | K. pneumoniae GC 4534 | E. cloacae GC 3783 | P. aeruginosa GC 4532 | E. faecalis GC 2242 | E. faecalis GC 842 | P. aeruginosa GC 2214
> 128 µg/mL: E. coli GC 4559 | E. coli GC 3226 | C. albicans GC 3066 | CNS GC 4537 | CNS GC 4538 | CNS GC 4547 | E. faecalis GC 4555 | S. aureus GC 1131 | S. aureus GC 2216 | S. aureus GC 4536 | E. coli GC 2203
